These results are taken from publication PMC6414696 (mBio, 2019).

One assay relates to A. baumannii ARC5955. In words: Neutropenic murine thigh infection model. Format: in vivo. The conditions noted are these: thigh tissue, CD-1 mice, 24 h after initiation of therapy, 50 mg/kg SC/q3h.
Another assay has as its target ADC-7 β-lactamase (Acinetobacter baumannii, UniProt Q6DRA1). In words: β-Lactamase steady-state kinetic analysis, ADC-7. Format: biochemical, A. baumannii.
Assay [1] has as its target T1, OXA-58 β-lactamase (Acinetobacter baumannii, UniProt Q2TR58). In words: β-Lactamase steady-state kinetic analysis, OXA-58. The assay is classed as biochemical, Acinetobacter spp.
The target in another assay is OXA-66 β-lactamase (Acinetobacter baumannii, UniProt Q58XD2). In words: β-Lactamase steady-state kinetic analysis, OXA-66. Format: biochemical, A. baumannii.
Chain of OXA-66 β-lactamase (Q58XD2 entry or part of it): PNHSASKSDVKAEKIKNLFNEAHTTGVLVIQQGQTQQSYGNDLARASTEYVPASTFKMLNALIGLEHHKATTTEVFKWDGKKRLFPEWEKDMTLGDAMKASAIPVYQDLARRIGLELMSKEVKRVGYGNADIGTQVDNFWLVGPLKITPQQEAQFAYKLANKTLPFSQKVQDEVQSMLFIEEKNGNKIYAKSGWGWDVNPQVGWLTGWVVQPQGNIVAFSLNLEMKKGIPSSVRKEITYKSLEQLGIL
Assay [2] concerns the target T1, OXA-58 β-lactamase. Nature of the assay: OXA-58 acyl-transfer experiment (mass spectrometry), KPC-2 as recipient. The assay is classed as biochemical. As to conditions: 10 µM each, 15 s to 24 h.
Another assay has as its system OXA-48. The conditions noted are these: cited from earlier work.
The test system of a further assay is OXA-10. As to conditions: OXA-10; range given jointly for several OXA enzymes; cited from earlier work.
Another assay relates to OXA-23. As to conditions: range given jointly for several OXA enzymes; cited from earlier work.
A further assay deals with OXA-24/40. The conditions noted are these: range given jointly for several OXA enzymes; cited from earlier work.
The subject of the next assay is KPC-2 β-lactamase. The conditions noted are these: cited from earlier work.
The test system of a further assay is OXA 24/40. The conditions noted are these: cited from earlier work.
Setting [3] is: read-out: koff (residence time).

As usually defined, the Kd is the constant that tells how readily two partners part at equilibrium. Broadly, the Ki is the dissociation constant of the complex between target and ligand, obtained from inhibition or displacement. High values mean lower affinity, low ones higher affinity. Usually koff stands for the rate constant with which the complex falls apart. The term IC50 denotes the midpoint of a concentration-inhibition curve.

T1 sequence (Q2TR58 22-280): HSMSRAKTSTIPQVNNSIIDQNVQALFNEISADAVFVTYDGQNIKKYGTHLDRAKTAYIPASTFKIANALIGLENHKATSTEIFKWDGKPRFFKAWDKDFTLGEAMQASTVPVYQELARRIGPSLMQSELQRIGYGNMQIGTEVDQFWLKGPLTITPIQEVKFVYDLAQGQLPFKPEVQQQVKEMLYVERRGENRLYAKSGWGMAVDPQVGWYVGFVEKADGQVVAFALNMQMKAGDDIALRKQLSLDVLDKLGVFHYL

Regarding `CC1=C[C@@H]2CN(C(=O)N2OS(=O)(=O)O)[C@@H]1C(N)=O` [ETX2514], the “Log10 CFU/g” value in the assay on A. baumannii ARC5955 came out at 8.8 log10 CFU/g. In the assay on A. baumannii ARC5955 (50 mg/kg), the “Change in log10 CFU/g” value is 2.2 log10 CFU/g. The results for the Kd at ADC-7 β-lactamase and at OXA-58 β-lactamase [1] were 0.001 ± 0.0001 µM and 0.001 ± 0.0002 µM, respectively. The Ki at ADC-7 β-lactamase turned out to be 0.11 ± 0.01 µM; on OXA-58 β-lactamase [1] it was 0.39 ± 0.04 µM; on OXA-66 β-lactamase, 43 ± 4 µM. Besides, the kinact/KI was 1e+06 ± 1e+11 M⁻¹ s⁻¹ on ADC-7 β-lactamase (pH 7.4, read-out: k2/Ki) and 250000 ± 3e+09 M⁻¹ s⁻¹ on OXA-58 β-lactamase [1] (pH 7.4, read-out: k2/Ki). The figures for the koff on ADC-7 β-lactamase (setting [3]), at OXA-58 β-lactamase [1] (setting [3]) and with KPC-2 β-lactamase were 0.0008 ± 1e-08 s⁻¹, 0.00016 s⁻¹ and 1.0 ± 0.1 × 10^−3 s^−1, respectively. Also, the “acyl transfer from acylated OXA-58 to KPC-2” value at OXA-58 β-lactamase [2] is “did not transfer to KPC-2”. The k2/Ki in the assay on OXA-48 is listed as 8 ± 2 × 10^5 M^−1 s^−1; in the assay on OXA-10 it was 5 to 9 × 10^3 M^−1 s^−1; in the assay with KPC-2 β-lactamase, 9.3 ± 0.6 × 10^5 M^−1 s^−1. For the same molecule, the “k2/Ki (acylation rate)” value in the assay with OXA-23 and with OXA-24/40 was 5 to 9 × 10^3 M^−1 s^−1 in each case. In addition, in the assay with OXA 24/40, the IC50 is 0.19 µM.
